According to patent US10160747B2, “Compounds and methods for kinase modulation, and indications therefor” (Plexxikon Inc., priority 2016, dated 2018):

Legend:
[1] = test system: MOLM-14 D835Y (endogenous FLT3 ITD and transfected FLT3 D835Y); test: MOLM-14 D835Y cell proliferation assay (CellTiter-Glo); assay type: cell-based; settings: Homo sapiens, MOLM-14, 72 h; 3 d growth, GMean
Outline: (§1)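 MOLM-14 cells (FLT3 ITD) carrying D835Y or F691L, 1×10^4 cells/well, eight 1:3 dilutions from 1 μM final, 0.2% DMSO, 3 days at 37 °C, 5% CO2. Viability by CellTiter-Glo luminescence (ATP content); IC50 from concentration-response.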

[2] = test system: MOLM-14 F691L (endogenous FLT3 ITD and transfected FLT3 F691L); test: MOLM-14 F691L cell proliferation assay (CellTiter-Glo); assay type: cell-based; settings: Homo sapiens, MOLM-14, 72 h; 3 d growth, GMean
Outline: as §1

BA/F3-FLT3-ITD + D835Y = biological target: T1, BA/F3-FLT3-ITD + D835Y (Homo sapiens, UniProt P36888, D835Y, cells depend on it, form not given); test: Engineered BA/F3 cell growth assay, FLT3 ITD/D835Y; assay type: cell-based, murine; settings: 3 d growth
T1 sequence (P36888 with tags, fused parts or gaps INS600HVDFREYEYD/D835Y): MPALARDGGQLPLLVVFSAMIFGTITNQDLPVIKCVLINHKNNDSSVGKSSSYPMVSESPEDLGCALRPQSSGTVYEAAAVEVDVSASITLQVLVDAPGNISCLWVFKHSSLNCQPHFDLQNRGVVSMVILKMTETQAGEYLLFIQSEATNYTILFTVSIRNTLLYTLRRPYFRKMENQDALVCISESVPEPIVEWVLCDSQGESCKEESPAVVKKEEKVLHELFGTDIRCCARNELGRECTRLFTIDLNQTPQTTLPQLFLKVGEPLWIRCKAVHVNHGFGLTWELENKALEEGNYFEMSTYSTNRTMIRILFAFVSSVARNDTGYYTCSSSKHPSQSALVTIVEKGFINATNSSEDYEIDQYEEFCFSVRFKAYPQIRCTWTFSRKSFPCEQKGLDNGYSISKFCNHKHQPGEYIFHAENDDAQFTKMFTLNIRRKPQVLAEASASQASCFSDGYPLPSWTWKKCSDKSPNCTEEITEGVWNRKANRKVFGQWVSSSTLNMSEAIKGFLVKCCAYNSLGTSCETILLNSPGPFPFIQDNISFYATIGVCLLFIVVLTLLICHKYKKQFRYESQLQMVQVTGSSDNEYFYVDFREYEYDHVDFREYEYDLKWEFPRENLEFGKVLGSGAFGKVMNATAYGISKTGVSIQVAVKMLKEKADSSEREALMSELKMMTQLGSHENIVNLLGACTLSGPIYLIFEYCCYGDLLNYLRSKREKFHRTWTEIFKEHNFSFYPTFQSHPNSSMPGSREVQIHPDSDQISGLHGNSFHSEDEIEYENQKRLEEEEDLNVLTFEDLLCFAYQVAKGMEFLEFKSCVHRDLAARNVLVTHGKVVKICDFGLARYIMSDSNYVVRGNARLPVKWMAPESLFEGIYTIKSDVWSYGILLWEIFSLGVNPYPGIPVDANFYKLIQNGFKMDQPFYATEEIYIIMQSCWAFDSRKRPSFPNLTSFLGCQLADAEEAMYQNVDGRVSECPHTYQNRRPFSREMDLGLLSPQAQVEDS
Outline: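 Murine Ba/F3 cells transfected with full-length FLT3 ITD/D835Y, grown without IL-3 so growth depends on FLT3. Seeded at 1×10^4 cells/well, 8-point 1:3 series to 1 μM top (0.2% DMSO), 3 days at 37 °C. CellTiter-Glo luminescence (ATP) versus concentration gave IC50.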

Row | Compound | IC50 [1] | IC50 [2] | GI50 (BA/F3-FLT3-ITD + D835Y)
1 | CCn1cc(Nc2ncc(-c3ccc(CC(=O)Nc4cnc(C)c(C(F)(F)F)c4)c(F)c3)cn2)cn1 [Compound P-0261, 2-[4-[2-[(1-ethylpyrazol-4-yl)amino]pyrimidin-5-yl]-2-fluoro-phenyl]-N-[6-methyl-5-(trifluoromethyl)-3-pyridyl]acetamide] | 0.0001 to 10 µM | 0.0001 to 10 µM | 0.0001 to 10 µM
2 | COc1ncc(NC(=O)Cc2ccc(-c3cnc4[nH]c(C#CC(C)(C)O)cc4c3)cc2)cc1C(F)(F)F [Compound P-0214, 2-(4-(2-(3-hydroxy-3-methylbut-1-yn-1-yl)-1H-pyrrolo[2,3-b]pyridin-5-yl)phenyl)-N-(6-methoxy-5-(trifluoromethyl)pyridin-3-yl)acetamide] | 0.0001 to 10 µM | 0.0001 to 10 µM | 0.0001 to 10 µM
3 | COc1ncc(NC(=O)Cc2ccc(-c3cnc4[nH]c(C#Cc5cncn5C)cc4c3)cc2)cc1C(F)(F)F [Compound P-0227, N-[6-methoxy-5-(trifluoromethyl)-3-pyridyl]-2-[4-[2-[2-(3-methylimidazol-4-yl)ethynyl]-1H-pyrrolo[2,3-b]pyridin-5-yl]phenyl]acetamide] | 0.0001 to 10 µM | 0.0001 to 10 µM | 0.0001 to 10 µM
4 | COc1ncc(NC(=O)Cc2ccc(-c3cnc4[nH]c(-c5ccnc(C#N)c5)cc4c3)c(F)c2)cc1C(F)(F)F [Compound P-0016, 2-[4-[2-(2-cyano-4-pyridyl)-1H-pyrrolo[2,3-b]pyridin-5-yl]-3-fluoro-phenyl]-N-[6-methoxy-5-(trifluoromethyl)-3-pyridyl]acetamide] | 0.0001 to 10 µM | 0.0001 to 10 µM | 0.0001 to 10 µM
5 | COCCn1cc(Nc2ncc(-c3ccc(CC(=O)Nc4cc(C(F)(F)F)ccn4)cc3)cn2)cn1 [Compound P-0222, 2-[4-[2-[[1-(2-methoxyethyl)pyrazol-4-yl]amino]pyrimidin-5-yl]phenyl]-N-[4-(trifluoromethyl)-2-pyridyl]acetamide] | 0.0001 to 10 µM | 0.0001 to 10 µM | 0.0001 to 10 µM
6 | COc1ncc(NC(=O)Cc2ccc(-c3cnc(Nc4cnn(C5CC5)c4)nc3)cc2F)cc1C(F)(F)F [Compound P-0241, 2-[4-[2-[(1-cyclopropylpyrazol-4-yl)amino]pyrimidin-5-yl]-2-fluoro-phenyl]-N-[6-methoxy-5-(trifluoromethyl)-3-pyridyl]acetamide] | 0.0001 to 10 µM | 0.0001 to 10 µM | 0.0001 to 10 µM
7 | O=C(Cc1ccc(-c2cnc(Nc3cnn(C4CC4)c3)nc2)cc1)Nc1cc(C(F)(F)F)ccn1 [Compound P-0237, 2-[4-[2-[(1-cyclopropylpyrazol-4-yl)amino]pyrimidin-5-yl]phenyl]-N-[4-(trifluoromethyl)-2-pyridyl]acetamide] | 0.0001 to 10 µM | 0.0001 to 10 µM | 0.0001 to 10 µM
8 | CCn1cc(Nc2ncc(-c3ccc(CC(=O)Nc4ccc(C(F)(F)F)cn4)c(F)c3)cn2)cn1 [Compound P-0256, 2-[4-[2-[(1-ethylpyrazol-4-yl)amino]pyrimidin-5-yl]-2-fluoro-phenyl]-N-[5-(trifluoromethyl)-2-pyridyl]acetamide] | 0.0001 to 10 µM | 0.0001 to 10 µM | 0.0001 to 10 µM
9 | COc1ncc(NC(=O)Cc2ccc(-c3cnc(Nc4cnn(C)c4)nc3)c(F)c2)cc1C(F)(F)F [Compound P-0206, 2-[3-fluoro-4-[2-[(1-methylpyrazol-4-yl)amino]pyrimidin-5-yl]phenyl]-N-[6-methoxy-5-(trifluoromethyl)-3-pyridyl]acetamide] | 0.0001 to 10 µM | 0.0001 to 10 µM | 0.0001 to 10 µM
10 | COc1ncc(NC(=O)Cc2ccc(-c3cnc4[nH]c(-c5ccnc(C#N)c5)cc4c3)cc2F)cc1C(F)(F)F [Compound P-0013, 2-[4-[2-(2-cyano-4-pyridyl)-1H-pyrrolo[2,3-b]pyridin-5-yl]-2-fluoro-phenyl]-N-[6-methoxy-5-(trifluoromethyl)-3-pyridyl]acetamide] | 0.0001 to 10 µM | 0.0001 to 10 µM | 0.0001 to 10 µM
11 | CCn1cc(Nc2ncc(-c3ccc(CC(=O)Nc4cnc(OC)c(C(F)(F)F)c4)c(F)c3)cn2)cn1 [Compound P-0259, 2-[4-[2-[(1-ethylpyrazol-4-yl)amino]pyrimidin-5-yl]-2-fluoro-phenyl]-N-[6-methoxy-5-(trifluoromethyl)-3-pyridyl]acetamide] | 0.0001 to 10 µM | 0.0001 to 10 µM | 0.0001 to 10 µM
12 | CCn1cc(Nc2ncc(-c3ccc(CC(=O)Nc4ccc(C(F)(F)F)nc4)cc3)cn2)cn1 [Compound P-0252, 2-[4-[2-[(1-ethylpyrazol-4-yl)amino]pyrimidin-5-yl]phenyl]-N-[6-(trifluoromethyl)-3-pyridyl]acetamide] | 0.0001 to 10 µM | 0.0001 to 10 µM | 0.0001 to 10 µM
13 | Cc1ncc(NC(=O)Cc2ccc(-c3cnc(Nc4cnn(C)c4C)nc3)cc2)cc1C(F)(F)F [Compound P-0229, 2-[4-[2-[(1,5-dimethylpyrazol-4-yl)amino]pyrimidin-5-yl]phenyl]-N-[6-methyl-5-(trifluoromethyl)-3-pyridyl]acetamide] | 0.0001 to 10 µM | 0.0001 to 10 µM | 0.0001 to 10 µM
14 | O=C(Cc1ccc(-c2cnc(Nc3cnn(C4CC4)c3)nc2)cc1)Nc1cncc(C(F)(F)F)c1 [Compound P-0231, 2-[4-[2-[(1-cyclopropylpyrazol-4-yl)amino]pyrimidin-5-yl]phenyl]-N-[5-(trifluoromethyl)-3-pyridyl]acetamide] | 0.0001 to 10 µM | 0.0001 to 10 µM | 0.0001 to 10 µM
15 | CCn1cc(Nc2ncc(-c3ccc(CC(=O)Nc4cnc(C)c(C(F)(F)F)c4)cc3)cn2)cn1 [Compound P-0254, 2-[4-[2-[(1-ethylpyrazol-4-yl)amino]pyrimidin-5-yl]phenyl]-N-[6-methyl-5-(trifluoromethyl)-3-pyridyl]acetamide] | 0.0001 to 10 µM | 0.0001 to 10 µM | 0.0001 to 10 µM
16 | O=C(Cc1ccc(-c2cnc(Nc3cnn(C(F)F)c3)nc2)cc1)Nc1cc(C(F)(F)F)ccn1 [Compound P-0023, 2-[4-[2-[[1-(difluoromethyl)pyrazol-4-yl]amino]pyrimidin-5-yl]phenyl]-N-[4-(trifluoromethyl)-2-pyridyl]acetamide] | 0.0001 to 10 µM | 0.0001 to 10 µM | 0.0001 to 10 µM
17 | Cn1cnc(Nc2ncc(-c3ccc(CC(=O)Nc4cc(C(F)(F)F)ccn4)cc3F)cn2)c1 [Compound P-0018, 2-[3-fluoro-4-[2-[(1-methylimidazol-4-yl)amino]pyrimidin-5-yl]phenyl]-N-[4-(trifluoromethyl)-2-pyridyl]acetamide] | 0.0001 to 10 µM | – | 0.0001 to 10 µM
18 | Cn1cnc(Nc2ncc(-c3cc(F)c(CC(=O)Nc4cc(C(F)(F)F)ccn4)cc3F)cn2)c1 [Compound P-0020, 2-[2,5-difluoro-4-[2-[(1-methylimidazol-4-yl)amino]pyrimidin-5-yl]phenyl]-N-[4-(trifluoromethyl)-2-pyridyl]acetamide] | 0.0001 to 10 µM | – | 0.0001 to 10 µM
19 | O=C(Cc1cc(F)c(-c2cnc(Nc3cnn(C(F)F)c3)nc2)cc1F)Nc1cc(C(F)(F)F)ccn1 [Compound P-0021, 2-[4-[2-[[1-(difluoromethyl)pyrazol-4-yl]amino]pyrimidin-5-yl]-2,5-difluoro-phenyl]-N-[4-(trifluoromethyl)-2-pyridyl]acetamide] | 0.0001 to 10 µM | – | 0.0001 to 10 µM
